Where two headings read alike, the source gives them in different places.
What was measured:
[1] = target: GSK3α (GST-full length GSK3α) (Homo sapiens (Human), UniProt P49840); assay: GSK3α TR-FRET kinase assay; assay type: biochemical
Procedure, shortened: (§1)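 In this time-resolved FRET format, kinase reactions contained 200 nM biotinylated, S645-phosphorylated glycogen synthase 631-650 peptide and either isoform-specific ATP (2 μM GSK3b, 4 μM GSK3α) or 1 mM ATP. They were quenched with EDTA after 100 min at ambient temperature. Inhibition curves gave IC50 values.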

[2] = target: GSK3b (GST-full length GSK3b) (Homo sapiens (Human), UniProt P49841); assay: GSK3b TR-FRET kinase assay; assay type: biochemical
Procedure, shortened: as §1

[3] = 1 nM GSK3α, 4 μM ATP, 30 minute preincubation, Table 16, read-out: GSK3-A TR-FRET BIOCHEMICAL (TR-FRET)
[4] = read-out: GSK3-A (TR-FRET 1 mM ATP), GMean, IC50, 1 mM ATP, geometric mean
[5] = 1 nM GSK3b, 2 μM ATP, 30 minute preincubation, Table 16, read-out: GSK3-B TR-FRET BIOCHEMICAL (TR-FRET)
[6] = read-out: GSK3-B (TR-FRET 1 mM ATP), GMean, IC50, 1 mM ATP, geometric mean
[7] = 1 nM GSK3α, 4 μM ATP, 30 minute preincubation, read-out: GSK3-A TR-FRET BIOCHEMICAL (TR-FRET), IC50
[8] = 1 nM GSK3b, 2 μM ATP, 30 minute preincubation, read-out: GSK3-B TR-FRET BIOCHEMICAL (TR-FRET), IC50
[9] = 1 nM GSK3α, 4 μM ATP, 30 minute preincubation, Table 16, read-out: GSK3-A TR-FRET BIOCHEMICAL (TR-FRET), IC50
[10] = 1 nM GSK3b, 2 μM ATP, 30 minute preincubation, Table 16, read-out: GSK3-B TR-FRET BIOCHEMICAL (TR-FRET), IC50
[11] = GSK3-A (TR-FRET 1 mM ATP), GMean, IC50, 1 mM ATP, geometric mean
[12] = GSK3-B (TR-FRET 1 mM ATP), GMean, IC50, 1 mM ATP, geometric mean

Chain of GSK3b (GST-full length GSK3b) (P49841 whole entry): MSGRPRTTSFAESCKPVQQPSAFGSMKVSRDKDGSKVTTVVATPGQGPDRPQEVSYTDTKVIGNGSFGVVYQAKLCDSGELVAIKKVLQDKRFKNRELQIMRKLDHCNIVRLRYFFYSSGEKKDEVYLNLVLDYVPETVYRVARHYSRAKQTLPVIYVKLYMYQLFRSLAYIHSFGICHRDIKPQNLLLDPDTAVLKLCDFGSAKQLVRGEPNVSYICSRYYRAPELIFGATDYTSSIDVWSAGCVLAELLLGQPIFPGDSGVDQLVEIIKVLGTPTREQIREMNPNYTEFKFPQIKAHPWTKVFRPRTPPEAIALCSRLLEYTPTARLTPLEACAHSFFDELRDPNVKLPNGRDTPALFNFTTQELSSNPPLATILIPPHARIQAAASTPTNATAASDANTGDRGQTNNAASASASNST
Chain of GSK3α (GST-full length GSK3α) (P49840 whole entry, canonical isoform): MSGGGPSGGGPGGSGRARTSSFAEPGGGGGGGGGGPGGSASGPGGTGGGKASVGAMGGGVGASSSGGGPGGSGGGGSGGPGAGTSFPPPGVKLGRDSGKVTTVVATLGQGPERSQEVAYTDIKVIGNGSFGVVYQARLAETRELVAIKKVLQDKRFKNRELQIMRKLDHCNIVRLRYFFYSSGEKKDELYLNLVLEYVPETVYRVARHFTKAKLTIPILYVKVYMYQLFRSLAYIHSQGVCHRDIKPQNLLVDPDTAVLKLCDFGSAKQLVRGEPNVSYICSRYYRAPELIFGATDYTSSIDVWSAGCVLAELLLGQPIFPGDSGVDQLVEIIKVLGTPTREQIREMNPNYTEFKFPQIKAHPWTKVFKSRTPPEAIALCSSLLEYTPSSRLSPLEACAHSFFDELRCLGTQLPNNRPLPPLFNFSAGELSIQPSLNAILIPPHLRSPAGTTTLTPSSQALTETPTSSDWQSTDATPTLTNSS

Compound	IC50 [1, 3] [nM]	IC50 [2, 5] [nM]	other results
CCC1(c2cccc(S(=O)(=O)C3CC3)c2)C2=C(CC(C)(C)CC2=O)Nc2n[nH]c(C(F)(F)F)c21 (stereo not shown) [Compound 945713]	≤ 100	≤ 100	IC50 [1, 4]: ≤ 100 nM; IC50 [2, 6]: ≤ 100 nM
CC[C@]1(c2cccc(S(=O)(=O)C3CC3)c2)C2=C(CC(C)(C)CC2=O)Nc2n[nH]c(C(F)(F)F)c21 [Compound 945715]	≤ 100	≤ 100	–
CCC1(c2cccc(-c3cncn3C(C)C)c2)C2=C(CC(C)(C)CC2=O)Nc2n[nH]cc21 (stereo not shown) [Compound 945725]	–	–	IC50 [1, 4]: ≤ 100 nM; IC50 [2, 6]: 100 to 1000 nM
CC[C@]1(c2cccc(-c3cnn(C)c3C)c2)C2=C(CC(C)(C)NC2=O)Nc2n[nH]c(C)c21 [Compound 945727]	–	–	IC50 [1, 7]: > 5000 nM; IC50 [2, 8]: > 5000 nM
CC1(C)CC(=O)C2=C(C1)Nc1n[nH]cc1[C@@]21CCC[C@@H](C#N)C1 [Compound 945906]	100 to 1000	100 to 1000	–
CCC1(c2cccc(C(F)(F)F)c2)C2=C(CC(C(C)(C)C)NC2=O)Nc2n[nH]cc21 (stereo not shown) [Compound 945921]	–	–	IC50 [1, 7]: 1000 to 5000 nM; IC50 [2, 8]: > 5000 nM
CC[C@]1(c2cccc(C(F)(F)F)c2)C2=C(C[C@@H](C(C)(C)C)NC2=O)Nc2n[nH]cc21 [Compound 945922]	–	–	IC50 [1, 7]: ≤ 100 nM; IC50 [2, 8]: 100 to 1000 nM
CCC1(c2cccc(C(F)(F)F)c2)C2=C(CC(C(C)(C)C)NC2=O)Nc2n[nH]cc21 (stereo not shown) [Compound 945923]	–	–	IC50 [1, 7]: > 5000 nM; IC50 [2, 8]: > 5000 nM
CCC1(c2cccc(Oc3cncnc3)c2)C2=C(CC(C)(C)CC2=O)Nc2n[nH]cc21 (stereo not shown) [Compound 945939]	100 to 1000	> 5000	–
CCC1(c2cccc(Nc3ncccn3)c2)C2=C(CC(C)(C)CC2=O)Nc2n[nH]cc21 (stereo not shown) [Compound 945943]	≤ 100	100 to 1000	–
CCC1(c2cccc(Nc3ncccn3)c2)C2=C(CC(C)(C)CC2=O)Nc2n[nH]cc21 (stereo not shown) [Compound 945958]	1000 to 5000	> 5000	–
CCC1(c2cccc(-c3ccnc(CCO)c3)c2)C2=C(CC(C)(C)CC2=O)Nc2n[nH]cc21 (stereo not shown) [Compound 945992]	≤ 100	100 to 1000	–
CCC1(c2cccc(-c3ccnc(C)c3C)c2)C2=C(CC(C)(C)NC2=O)Nc2n[nH]cc21 (stereo not shown) [Compound 945994]	–	–	IC50 [1, 7]: ≤ 100 nM; IC50 [2, 8]: 100 to 1000 nM
CC[C@]1(c2cccc(-c3cc(C)ncc3OC)c2)C2=C(CC(C)(C)CC2=O)Nc2n[nH]cc21 [Compound 945995]	≤ 100	≤ 100	IC50 [1, 4]: 100 to 1000 nM; IC50 [2, 6]: 1000 to 5000 nM
CCC1(c2cccc(S(=O)(=O)C3COC3)c2)C2=C(CC(C)(C)CC2=O)Nc2n[nH]cc21 (stereo not shown) [Compound 945998]	≤ 100	≤ 100	–
CC[C@]1(c2cccc(S(=O)(=O)C3CC3)c2)C2=C(CC(C)(C)NC2=O)Nc2n[nH]cc21 [Compound 945999]	–	–	IC50 [1, 7]: ≤ 100 nM; IC50 [2, 8]: ≤ 100 nM
CCC1(c2cccc(S(=O)(=O)C3CC3)c2)C2=C(CC(C)(C)NC2=O)Nc2n[nH]cc21 (stereo not shown) [Compound 946004]	–	–	IC50 [1, 7]: 100 to 1000 nM; IC50 [2, 8]: > 5000 nM
CC[C@@]1(c2ccccc2)C2=C(CC(C)(C)C(O)C2=O)Nc2n[nH]cc21 (stereo partly shown) [Compound 946056]	100 to 1000	> 5000	–

Compound	IC50 [1, 3] [nM]	IC50 [2, 5] [nM]	other results
CC1(C)CC(=O)C2=C(C1)Nc1n[nH]cc1[C@@]21CO[C@H](c2ccccc2)C1 [Compound 946072]	≤ 100	100 to 1000	–
CC1(C)CC(=O)C2=C(C1)Nc1n[nH]cc1[C@]21CCC[C@H](C#N)C1 [Compound 946078]	–	–	IC50 [1, 9]: 1000 to 5000 nM; IC50 [2, 10]: > 5000 nM
CC1(C)CC(=O)C2=C(C1)Nc1n[nH]cc1[C@]21CCC[C@@H](C#N)C1 [Compound 946080]	–	–	IC50 [1, 9]: 1000 to 5000 nM; IC50 [2, 10]: 1000 to 5000 nM
CCn1nccc1-c1cccc(C2(CC)C3=C(CC(C)(C)CC3=O)Nc3n[nH]cc32)c1 (stereo not shown) [Compound 946090]	100 to 1000	> 5000	–
CCC1(c2cccc(-c3ccnn3C(C)C)c2)C2=C(CC(C)(C)CC2=O)Nc2n[nH]cc21 (stereo not shown) [Compound 946092]	1000 to 5000	> 5000	–
CCCn1nccc1-c1cccc(C2(CC)C3=C(CC(C)(C)CC3=O)Nc3n[nH]cc32)c1 (stereo not shown) [Compound 946093]	≤ 100	≤ 100	IC50 [1, 4]: ≤ 100 nM; IC50 [2, 6]: 100 to 1000 nM
CCC1(c2cccc(-c3ccnn3CCC(C)C)c2)C2=C(CC(C)(C)CC2=O)Nc2n[nH]cc21 (stereo not shown) [Compound 946095]	≤ 100	≤ 100	–
CCC1(c2cccc(-c3ccnn3CCC(C)C)c2)C2=C(CC(C)(C)CC2=O)Nc2n[nH]cc21 (stereo not shown) [Compound 946096]	100 to 1000	> 5000	–
CCC1(c2cccc(-c3cc(C)nn3C)c2)C2=C(CC(C)(C)CC2=O)Nc2n[nH]cc21 (stereo not shown) [Compound 946097]	≤ 100	100 to 1000	–
CCC1(c2cccc(-c3ccnc(C)c3)c2)C2=C(Nc3n[nH]cc31)C(F)C(C)(C)CC2=O (stereo not shown) [Compound 946102]	1000 to 5000	> 5000	–
CCC1(c2cccc(-c3ccnc(C)c3)c2)C2=C(Nc3n[nH]cc31)C(F)C(C)(C)CC2=O (stereo not shown) [Compound 946103]	100 to 1000	1000 to 5000	IC50 [1, 4]: > 5000 nM; IC50 [2, 6]: > 5000 nM
CCC1(c2cccc(-c3ccnc(C)c3)c2)C2=C(Nc3n[nH]cc31)C(F)C(C)(C)CC2=O (stereo not shown) [Compound 946104]	≤ 100	100 to 1000	IC50 [1, 4]: 100 to 1000 nM; IC50 [2, 6]: > 5000 nM
CC1(C)CC(=O)C2=C(C1)Nc1n[nH]cc1C21CCN(S(=O)(=O)c2cccc(OC(F)F)c2)CC1 [Compound 947242]	≤ 100	≤ 100	IC50 [1, 11]: ≤ 100 nM; IC50 [2, 12]: 100 to 1000 nM
CC1(C)CC(=O)C2=C(C1)Nc1n[nH]cc1C21CCN(S(=O)(=O)c2cccc(C(F)(F)F)c2)CC1 [Compound 947244]	≤ 100	≤ 100	–
COc1ccc(C)c(S(=O)(=O)N2CCC3(CC2)C2=C(CC(C)(C)CC2=O)Nc2n[nH]cc23)c1 [Compound 947245]	≤ 100	100 to 1000	–
CC1(C)CC(=O)C2=C(C1)Nc1n[nH]cc1C21CCN(S(=O)(=O)c2ccc(OC(F)F)cc2)CC1 [Compound 947246]	≤ 100	≤ 100	IC50 [1, 11]: ≤ 100 nM; IC50 [2, 12]: 100 to 1000 nM
CN(C)C(=O)c1cccc(S(=O)(=O)N2CCC3(CC2)C2=C(CC(C)(C)CC2=O)Nc2n[nH]cc23)c1 [Compound 947247]	≤ 100	≤ 100	–
CC1(C)CC(=O)C2=C(C1)Nc1n[nH]cc1C21CCN(S(=O)(=O)c2cccc(Cl)c2Cl)CC1 [Compound 947249]	≤ 100	≤ 100	–

More lines, main results first:

IC50 [1, 3] [nM]	IC50 [2, 5] [nM]	Compound	other results
≤ 100	≤ 100	Cn1ccc(S(=O)(=O)N2CC[C@@]3(C2)C2=C(CC(C)(C)CC2=O)Nc2n[nH]cc23)n1 [Compound 945714]	–
≤ 100	≤ 100	CC1(C)CC(=O)C2=C(C1)Nc1n[nH]cc1[C@@]21CCN(S(=O)(=O)c2ccccc2F)C1 [Compound 945719]	–
≤ 100	≤ 100	CC[C@]1(c2cccc(-c3ccncc3O)c2)C2=C(CC(C)(C)CC2=O)Nc2n[nH]cc21 [Compound 945724]	IC50 [1, 4]: 100 to 1000 nM; IC50 [2, 6]: 1000 to 5000 nM
1000 to 5000	> 5000	CCc1cccc(N(C)c2cccc([C@]3(CC)C4=C(CC(C)(C)CC4=O)Nc4n[nH]cc43)c2)n1 [Compound 945726]	–
1000 to 5000	> 5000	CC[C@@]1(c2cccc(-c3ccncc3O)c2)C2=C(CC(C)(C)CC2=O)Nc2n[nH]cc21 [Compound 945728]	–
≤ 100	≤ 100	CC[C@]1(c2cccc(-c3ccnc(C)c3OC)c2)C2=C(CC(C)(C)CC2=O)Nc2n[nH]cc21 [Compound 945997]	IC50 [1, 4]: 100 to 1000 nM; IC50 [2, 6]: 1000 to 5000 nM
100 to 1000	> 5000	CCC1(c2cccc(S(=O)(=O)C3COC3)c2)C2=C(CC(C)(C)CC2=O)Nc2n[nH]cc21 (stereo not shown) [Compound 946003]	–
≤ 100	100 to 1000	CC1(C)CC(=O)C2=C(C1)Nc1n[nH]cc1[C@@]21CO[C@@H](c2ccccc2)C1 [Compound 946073]	–
100 to 1000	1000 to 5000	CCCn1nccc1-c1cccc(C2(CC)C3=C(CC(C)(C)CC3=O)Nc3n[nH]cc32)c1 (stereo not shown) [Compound 946094]	–
1000 to 5000	> 5000	CCC1(c2cccc(-c3ccnc(C)c3)c2)C2=C(Nc3n[nH]cc31)C(F)C(C)(C)CC2=O (stereo not shown) [Compound 946101]	–
≤ 100	≤ 100	Cc1ccc(S(=O)(=O)N2CCC3(CC2)C2=C(CC(C)(C)CC2=O)Nc2n[nH]cc23)cc1Cl [Compound 947241]	–
≤ 100	≤ 100	CC1(C)CC(=O)C2=C(C1)Nc1n[nH]cc1C21CCN(S(=O)(=O)c2cccc(Cl)c2)CC1 [Compound 947243]	IC50 [1, 11]: 100 to 1000 nM; IC50 [2, 12]: 1000 to 5000 nM
≤ 100	≤ 100	CC1(C)CC(=O)C2=C(C1)Nc1n[nH]cc1C21CCN(S(=O)(=O)c2ccc(C(F)F)cc2)CC1 [Compound 947248]	–

— patent US20250313563A1, “GLYCOGEN SYNTHASE KINASE 3 INHIBITORS AND USES THEREOF” (The Broad Institute, Inc., priority 2022, published 2025)
